Columns and labels:
[1] = tested on: Sna3-GFP; experiment: Sna3-GFP trafficking to the vacuole (Western blot, GFP cleavage); type: cell-based, yeast; conditions: for ratio of Sna3-GFP to free GFP: 10 μM, FIGS. 16A-16F, within the compound series; for Sna3-GFP trafficking to the vacuole (in words): galactose 5 hours, FIGS. 15B-15F
Protocol: Log phase CsmRaf cultures of WT tagged Sna3-GFP cells were shifted to galactose for 5 hours in the presence or absence of the compounds. Cell pellets were lysed in SDS-loading dye and Sna3-GFP cleavage monitored by Western blotting with an anti-GFP antibody. Log phase CsmRaf cultures of WT or α-syn yeast were shifted to galactose for 5 hours in the presence or absence of the compounds at which point they were then prepared for Western blot analysis. FIGS. 15B-15F show Western blot analyses of Sna3-GFP for various compounds.
Ratio of the intact Sna3-GFP to cleaved GFP was calculated for each of the conditions as a readout for efficiency of trafficking of the Sna3-GFP molecule to the vacuole. Polyubiquitination of Sna3-GFP was used as a readout for the intermediate step at the multivesicular body. Image Studio software was used to determine the intensities of the bands, based on linear interpolation of the mean signal intensities from each of the areas of interest and ratios were subsequently calculated in Microsoft Excel and plotted according to the compound series as shown in FIGS. 16A-16F. In the ‘32’ series of analogs, the ratio of Sna3-GFP to free GFP varied among the analogs, with DES-2179 having the lowest ratio of Sna3-GFP to free GFP and DES-2866 having the highest ratio (FIG. 16A). In the ‘91’ series of analogs, the ratio of Sna3-GFP to free GFP varied among the analogs, but less so than for the ‘32’ series (FIG. 16B). In the ‘4117’ series of analogs, the ratio of Sna3-GFP to free GFP was lowest for DES-5212 (FIG. 16C). […] In the ‘28’ series of analogs, DES-2817 had the lowest ratio of Sna3-GFP to free GFP (FIG. 16F). The other compounds in the ‘28’ series had ratios between ˜0.5 and 1.0 (FIG. 16F). In the ‘37’ series of analogs, the ratio of Sna3-GFP to free GFP was greatest for DES-2926 (FIG. 16F).

[2] = tested on: α-synuclein-expressing yeast; experiment: α-synuclein toxicity rescue in yeast (growth, OD600); type: cell-based; conditions: for rescue of aSyn toxicity in yeast (in words): FIGS. 8A-8B
Protocol: Yeast Strains and culturing: Yeast strains expressing alpha-synuclein have been described in Cooper at. al, 2006. (Cooper A A, et al. Alpha-synuclein blocks ER-Golgi traffic and Rab1 rescues neuron loss in Parkinson's models. Science. 2006 Jul. 21; 313:324) Strains express multiple copies of alpha-synculein for galactose-inducible expression. […] Yeast were cultured in complete synthetic media (CSM) and an appropriate dropout (lacking histidine or uracil) to maintain plasmids if required. For galactose-induction experiments, overnight cultures were grown in CSM/2% glucose to saturation and diluted 1:20 into CSM/2% raffinose for ˜2 generations. Cultures were then diluted into CSM/2% galactose at an optimum OD600 for the experiment (see ‘Growth assays’).
Yeast Growth assays: Starting cultures for all dose-response assays were based on strains initially constructed in the lab to maintain homogeneity across experiments. All growth assays were carried out in 384 well format. Source plates were assembled in 96 well plates using multichannel pipettes to dilute rows in 1.6-fold serial dilutions of CSMGal. To these dilution series containing 2× final concentration of compound, 2×OD600 culture (in CSMGal) was dispensed with a multichannel pipette to achieve a final drug/culture mix with the desired OD600 and drug concentration. For WT yeast, the final starting OD600 was 0.01. For α-syn, the final starting OD600 was 0.02. Drug concentration ranges varied depending on efficacy, growth inhibition, and solubility in media. A Tecan EvoFreedom liquid handling robot was then used to transfer culture from 96 to 384 well format with each well being represented four times. Final well volume was 35 μL. Plates were then incubated in humidified containers at 30° C. for either 24 or 40 hours. Plates were then read with a Tecan Saphire plate reader at OD600.
Raw OD600 values were transformed to “Relative Growth” in WT cells or “% Maximum Rescue” in α-syn experiments. In WT cells, the well background was subtracted and all values were then normalized to 100% for the untreated condition. In α-syn rescue experiments, the well background was subtracted and the maximum rescue in the particular experiment was normalized to 100%.

[3] = tested on: K63 linkages in iPS derived human neurons; experiment: K63-Ub linkages in human iPS derived neuronal cultures (immunoblot); type: cell-based
Protocol: Human HEK-293 or neuronal cells treated with the appropriate compounds, were washed twice with ice cold PBS and then 0.5 ml of Lysis buffer was added and cells were scraped off the 10 cm dish (1 ml for 15 cm).
Lysis buffer is 50 mM Tris/HCl pH 7.5, 1 mM EGTA, 1 mM EDTA, 0.5 or 1% (v/v) NP-40, 1 mM sodium orthovanadate, 50 mM NaF, 5 mM sodium pyrophosphate, 0.27 M sucrose, 10 mM sodium 2-glycerophosphate, 0.2 mM phenylmethylsulphonyl fluoride, 1 mM benzamidine, plus 100 mM iodoacetamide added fresh prior to lysis (weight powder, don't use a frozen stock solution) to inactivate deubiquitylase activities and add also pepstatin/aprotinin to inhibit proteases. Cell extracts were sonicated twice for 15 seconds each time and clarified by centrifugation at 14000 g for 15 min at 4° C. Supernatants were collected and filtered using a 0.45 uM MiniSart/Syringe. Next, protein concentrations were determined by Bradford procedure.
The avidity based K63 linkage sensor protein was based on Sims et. al, 2012. Briefly, avidity based K63 sensor Halo-fusion protein was expressed in an E. coli expression vector and covalently bound to Halo-tag beads [Magne® HaloTag® Beads, 20% Slurry; Cat #G7281]. […] After incubation, the beads were washed three times with 1 ml of Lysis buffer containing 500 mM NaCl and once with 0.5 ml of 10 mM Tris/HCl pH 8.0. […] The eluate is heated at 75° C. for 5 min and analysed by immuno-blotting using an anti-K63 linkage specific antibody (http://www.abcam.com/ubiquitin-linkage-specific-k63-epr8590-448-antibody-ab179434.html).
Pure neuronal cultures derived from human iPS cells were treated with DMSO, DES-2877, DES-4114 and #32 at 5 μM for 12 hours. […] Ubiquitylation site identification by mass spectrometry was performed as described Kim et al., (Systematic and quantitative assessment of the ubiquitin-modified proteome. Mol Cell. 2011; 44:325-340). and Sarraf et al., (Landscape of the PARKIN-dependent ubiquitylome in response to mitochondrial depolarization. Nature. 2013; 496:372-376).

[4] = tested on: Carboxypeptidase Y (CPY); experiment: Western blot of Carboxypeptidase Y (CPY) trafficking; type: cell-based, yeast
Protocol: (§1) Protein analysis was performed in NoTox and HiTox strains with the compound treatment at indicated concentrations. Log phase CSM/2% raffinose cultures were induced with 2% galactose for 5 hours with DMSO or the compounds. Cultures were normalized to cell density and cell pellets prepared for SDS-PAGE. Cell pellets were boiled in SDS-loading dye for 15′, centrifuged, and resolved by 4-12% SDS-PAGE. CPY western blots were performed using culture conditions as described above. An anti-Cpy antibody (Invitrogen, A6428) was used at 1:5,000. Post-ER:ER ratios were quantitated using an IRDye800 secondary antibody (Li-Cor Odyssey, Rockland Immunochemicals) and scanned with the Li-Cor Odyssey imaging system. Significance was determined using a one-way ANOVA and Tukey's test of significance. From the same gel, total protein was detected by coomassie staining. Both blots and coomassie-stained gels were scanned using the Li-Cor Odyssey imaging system and quantitated. Significance was determined using a one-way ANOVA with Tukey's test of significance.

[5] = tested on: Sna3-GFP; experiment: Immunoblot analysis of Sna3-GFP polyubiquitination in WT and α-syn cells; type: cell-based, yeast; conditions: FIG. 11B
Protocol: as §1
In WT Sna3-GFP cells, log phase CSMRaf cultures were shifted to galactose for 5 hours in the presence or absence of the compounds. Cell pellets were lysed in SDS-loading dye and Sna3-GFP cleavage monitored by Western blotting with an anti-GFP antibody. […]

[6] = molecular target: T1, Rsp5 (Saccharomyces cerevisiae, UniProt P39940); experiment: Back-Scattering Interferometry (BSI) binding to recombinant Rsp5; conditions: for Kd: 100 nM Rsp5, one-site saturation binding model, read-out: dissociation constant (Kd) for binding to Rsp5
T1 sequence (P39940 431-809 limits assumed): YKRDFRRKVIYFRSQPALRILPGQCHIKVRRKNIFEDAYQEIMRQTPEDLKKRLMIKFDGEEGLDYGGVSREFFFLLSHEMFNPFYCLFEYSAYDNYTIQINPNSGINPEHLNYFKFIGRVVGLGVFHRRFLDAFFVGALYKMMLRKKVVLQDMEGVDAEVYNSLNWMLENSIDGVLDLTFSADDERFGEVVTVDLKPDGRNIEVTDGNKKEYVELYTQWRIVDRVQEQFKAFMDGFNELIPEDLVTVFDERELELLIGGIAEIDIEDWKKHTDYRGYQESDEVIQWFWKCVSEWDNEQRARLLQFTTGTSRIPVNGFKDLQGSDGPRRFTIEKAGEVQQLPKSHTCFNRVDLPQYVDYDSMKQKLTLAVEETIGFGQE
Protocol: Sample Preparation of Rsp5 Target: Rsp5 was supplied in 15 μL aliquots of 100 μM (25 mM HEPES pH 7.5, 200 mM NaCl, 5 mM DTT) by St. Jude Research Hospital (Memphis, Tenn.) and was stored at −80° C. Immediately prior to assays fresh aliquots were thawed and diluted in 25 mM HEPES, pH 7.5, 200 mM NaCl, 1 mM DTT, 0.005% pluronic acid and 1% DMSO. The final Rsp5 concentration in the binding assay was 100 nM.
Sample Preparation of compounds (ligands): The compounds were received as solids and reconstituted to either 40 or 20 mM in 100% DMSO and stored at −80° C. in single use aliquots. The final concentration of each ligand in an assay was 50 μM with a 2× serial dilution to create a 12-point curve.
The assay buffer was 25 mM HEPES, pH 7.5, 200 mM NaCl, 1 mM DTT, 0.005% pluronic acid, 1% DMSO. The assay was run in Eppendorf 96-well PCR microplates. 55 μL of either Rsp5 or buffer (as control) were added to a each well. To these wells were added 55 μL of the compound dilution. A reference channel containing only buffer was setup as well for thermal compensation during assay measurements. The plates were heat sealed with foil and the assay plates were allowed to incubate at room temperature for 2 hours. Wells were pierced individually prior to sample injection and measurement of BSI signal (each well analyzed in duplicate). The assays were run using a glass microfluidic chip with a proprietary surface treatment on TruBind™ 100 system.
The BSI signal was expressed as the magnitude of the spatial shift of the fringe pattern on a CMOS camera, measured in milliradians. The control signal was subtracted from assay signal for each compound dilution point. The resulting values were re-zeroed and analyzed with the GraphPad Prism program. The dissociation constant (Kd) was derived from non-linear least-squares fitting of the data using the one-site saturation binding model. The goodness of fit was judged by the calculated R^2 value. The difference and control curves for at least two successful assays were averaged. The resulting average difference curve was used to calculate the reported Kd value for each compound.

[7] = tested on: aSyn-expressing yeast cells; experiment: Morphological analysis of aSyn-expressing yeast cells; type: cell-based; conditions: 10 uM, galactose induction five hours, FIG. 10
Protocol: Raffinose cultures of α-syn expressing yeast cells were grown up to the logarithmic phase in raffinose. Cultures were induced with galactose for five hours in the presence or absence of the indication concentration of the compounds. In the present example, the identified compounds were present at a concentration of 10 uM. Cells were centrifuged, media discarded, and then fixed with 4% paraformaldehyde in 1×PBS for 1 hr. The fixed culture was centrifuged, and the pellet resuspended in 0.4% paraformaldehyde in 1×PBS and kept at 4° C.

For `COc1cc(/C=N/Nc2nc(Nc3cccc(C(F)(F)F)c3)nc(N3CCOCC3)n2)ccc1O` [DES-2179], the “ratio of Sna3-GFP to free GFP” value [1] was “lowest ratio”, the “Sna3-GFP trafficking to the vacuole (in words)” value (“Sna3-GFP trafficking” for short) [1] was “promotes Sna3-GFP trafficking to the vacuole” and the “concentration at which efficacy of rescue peaks” value ([2]; dose-response, FIG. 1B, above the peak growth slows) was “around 10 μM”. For the same compound, the “K63-linked ubiquitination of proteins” value ([3]; Nedd4-dependent manner, FIGS. 3A-3C) was “promote K63-linked ubiquitination of proteins” and the “Cpy trafficking defect (block in vesicle trafficking)” value ([4]; FIG. 1C) was “ameliorate this defect”.

`O=C(c1ccc(COc2ccc(OC(F)(F)F)cc2)o1)N1CCN(c2ccccc2)CC1` [DES-2184] was tested, and the “rescue of aSyn toxicity in yeast (in words)” value (from here on “rescue of aSyn toxicity”) [2] was “also effective”.

`CCCCc1ccc2nc(-c3ccc(-c4cc(Cl)cc(Cl)c4)o3)cc(C(=O)O)c2c1` [DES-2817] was tested, and the “ratio of Sna3-GFP to free GFP” value [1] was “lowest ratio” and the “Sna3-GFP trafficking” value [1] was “promote Sna3-GFP trafficking to the vacuole”.

In the case of `O=C(c1ccc(COc2ccc(OC(F)(F)F)cc2)o1)N1CCC(O)(c2ccc(Cl)cc2)CC1` [DES-2854], the “Sna3-GFP trafficking” value [1] is reported as “promote Sna3-GFP trafficking to the vacuole”.

`COc1cc(Cl)cc(/C=N/Nc2nc(Nc3ccc(C)c(Cl)c3)nc(N3CCOCC3)n2)c1O` [DES-2866] was tested, and the “ratio of Sna3-GFP to free GFP” value [1] was “highest ratio” and the “rescue of aSyn toxicity” value [2] was “also effective”.

In the case of `COc1cc(Cl)cc(/C=N/Nc2nc(Nc3cc(C)ccc3C)nc(N3CCOCC3)n2)c1O` [DES-2877], the “rescue of aSyn toxicity” value [2] is reported as “most effective”, the “K63 linkages in iPS derived human neurons” value ([3]; 5 μM for 12 hours, FIG. 13A) is reported as “modest increase” and the “accumulation of CPY trafficking intermediates en route to the vacuole” value ([4]; FIG. 11D) is reported as “increase”. The “polyubiquitinated Sna3-GFP” value [5] was “increase”, the Kd [6] was 1.7 ± 0.4 µM and the “morphology: vesicular intermediates in yeast cells” value [7] was “accumulation of vesicular intermediates”.

`O=C(c1ccc(COc2ccc3ccccc3c2)o1)N1CCN(c2ncccn2)CC1` [DES-2926] was tested, and the “ratio of Sna3-GFP to free GFP” value [1] was “greatest”.

In the case of `Cc1ccc(C2CC(C(F)(F)F)n3nc(C(=O)N4CCN(c5ccccc5)CC4)cc3N2)cc1` (stereo not drawn) [DES-2960], the “Sna3-GFP trafficking” value [1] is reported as “promotes Sna3-GFP trafficking to the vacuole better than DES-2866 and DES-2928”.

`COc1cc(/C=N/Nc2nc(Nc3ccccc3)nc(N3CCOCC3)n2)ccc1OCC#N` [DES-3001] was tested, and the “Sna3-GFP trafficking” value [1] was “promote Sna3-GFP trafficking to the vacuole” and the “binding to Rsp5 (in words)” value [6] was “did not show binding”.

For `O=C(Nc1cccc(Cl)c1)c1coc(CN2CCN(c3ccc(F)cc3)CC2)n1` [DES-3035], the “Sna3-GFP trafficking” value [1] was “promote Sna3-GFP trafficking to the vacuole”.

With `C(=N\Nc1nc(Nc2ccccc2)nc(N2CCOCC2)n1)/c1ccncc1` [DES-4117] the “binding to Rsp5 (in words)” value [6] was “did not show binding”.

For `Cc1ccc(C)c(Nc2nc(N/N=C/c3ccncc3)nc(N3CCOCC3)n2)c1` [DES-5204], the “Sna3-GFP trafficking” value [1] was “promote Sna3-GFP trafficking to the vacuole”.

`C(=N\Nc1cc(N2CCOCC2)nc(Nc2ccccc2)n1)/c1ccncc1` [DES-5212] was tested, and the “ratio of Sna3-GFP to free GFP” value [1] was “lowest”, the “Sna3-GFP trafficking” value [1] was “promote Sna3-GFP trafficking to the vacuole” and the Kd [6] was 0.68 ± 0.18 µM.

— patent publication US20200375996A1, “METHOD OF TREATING NEURODEGENERATIVE DISORDERS BY RESCUING ALPHA-SYNUCLEIN TOXICITY” (D.E. Shaw Research, LLC, priority 2015, published 2020)
